Laboratory results: patent US9937262B2 (priority 2013, dated 2018)
In brackets after ≈: the same amount, converted by molar mass. Where two headings read alike, the source gives them in different places.

How the values were obtained:
[1] = human
Protocol: At 37±0.5° C., the hydrolysis rate of the prodrugs was measured in 80% human plasma. An appropriate aliquot (20-100 μL) of 1 mg/ml prodrug solution in methanol was transferred to 5.0 ml of preheated plasma. At appropriate time intervals, 300 μl sample aliquots were withdrawn and transferred to 600 μl acetonitrile and mixed thoroughly. After centrifugation at 13500 rpm for 5 min, the supernatant was analyzed by HPLC for parent drug and remaining prodrug.

[2] = Stability (cleavage to parent drug) of prodrug suspensions in PBS pH 7.4; type: physicochemical; conditions: for estimated pseudo first-order rate constant (khyd) for cleavage: PBS pH 7.4, 37° C., calculated from k0 and Sprodrug; for apparent pseudo-zero-order rate constant (k0): appearance of parent drug from suspension in PBS pH 7.4, 37° C.
Protocol: Suspensions of the prodrugs in 67 mM phosphate buffer pH 7.4 (PBS) were prepared by adding 10 mL PBS to approximately 5 mg prodrug. The suspensions were kept unstirred at 37° C. in an incubator hood. At appropriate time intervals over 23 days, about 500 μL samples were taken and after filtration (disposable syringe filters), the solutions were analyzed immediately by HPLC for parent drug and remaining prodrug. Quantitation of parent drug and prodrug was done from peak area measurements in relations to those of standards analysed by HPLC at the same conditions. […] Reversed phase chromatography was performed using a C18 Gemini® RP column (150×4.6 mm, 5 μm particles) (Phenomenex, Torrance, Calif., USA) equipped with a SecurityGuard precolumn (Phenomenex, Torrance, Calif., USA). The flow rate was set at 1 mL/min and the column effluent was monitored at 230 nm. The mobile phase consisted of 35% (v/v) acetonitrile and 65% (v/v) of 0.1% (v/v) phosphoric acid pH 3.2. The retention times varied in the range of 3 to 30 min.
From the observed relatively stable concentration of dissolved prodrugs measured in the suspensions after 8-9 day up to 23 days, the solubilities of the prodrugs (Sprodrug) were determined. In this time interval, the rate of appearance of parent drug was determined and an apparent pseudo-zero-order rate constant (k0) was obtained. By assuming that the dissolution rates were much faster than the conversion of the prodrugs to the parent drug, pseudo first-order rate constants (khyd) for cleavage of the prodrugs were calculated according to:

[3] = Solubility of the prodrugs in PBS (67 mM phosphate buffer pH 7.4) at 37° C.; type: physicochemical; conditions: 67 mM phosphate buffer pH 7.4 (PBS), aqueous buffer, thermodynamic from solid, read-out: Sprodrug ± SD
Protocol: The determination of the solubility of a prodrug at different pH values of interest according to the present invention is carried by adding excess solid prodrug to a container containing a buffer solution with well-defined pH. The mixture is rotated at constant temperature until an equilibrium between solid prodrug and prodrug in solution has established (that is until the prodrug concentration in the supernatant remains constant). At each measurement the pH of the supernatant is controlled and eventually adjusted to the desired pH.
Suspensions of the prodrugs in 67 mM phosphate buffer pH 7.4 (PBS) were prepared by adding 10 mL PBS to approximately 5 mg prodrug. The suspensions were kept unstirred at 37° C. in an incubator hood. At appropriate time intervals over 23 days, about 500 μL samples were taken and after filtration (disposable syringe filters), the solutions were analyzed immediately by HPLC for parent drug and remaining prodrug. Quantitation of parent drug and prodrug was done from peak area measurements in relations to those of standards analysed by HPLC at the same conditions. […] The flow rate was set at 1 mL/min and the column effluent was monitored at 230 nm. […]
From the observed relatively stable concentration of dissolved prodrugs measured in the suspensions after 8-9 day up to 23 days, the solubilities of the prodrugs (Sprodrug) were determined. […]

[4] = Solubility of DPX-2-0006 at pH 3 in the presence of N,N-dimethyl acetamide (DMA); type: physicochemical; conditions: aqueous with cosolvent or surfactant or cyclodextrin, thermodynamic from solid, acidic suspension (pH 3), 37° C.
Protocol: A suspension of DPX-2-0006 was formed by adding 10 mg to 3 mL demineralized water, 0.05 mL 0.100 M HCl was added to obtain a pH of 3. After rotation of the suspension at 37° C. for 1 days, 0.5 mL sample was taken and after filtration (disposable syringe filters), the solution was diluted in methanol:water 1:1 and analyzed immediately by HPLC for prodrug. […] The HPLC method described in Example 29 was applied and the retention time of DPX-2-0006 was 14 min, respectively. N,N-dimethylacetamide (DMA) was added stepwise to the acidic suspension of DPX-2-0006 and the amount of DPX-2-0006 dissolved in the presence of various volumes of DMA was determined after 1-3 days rotation at 37° C. as described above.

[5] = Precipitation on addition of acidic prodrug solution to 67 mM phosphate buffer pH 7.4; type: physicochemical; conditions: 1.0 mL concentrated aqueous solution pH 3.4 added to 1.0 mL 67 mM phosphate buffer pH 7.4
Protocol: The pH in the suspension was measured to 7.0.

Row | Structure (SMILES) | estimated pseudo first-order rate constant (khyd) for cleavage [2] [day⁻¹] | apparent pseudo-zero-order rate constant (k0) [2] [M/day] | also measured
1 | COc1ccc2cc(C(C)C(=O)OCCn3ccnc3)ccc2c1 (stereo not shown) |  |  | t1/2 in plasma (hydrolysis) [1]: 64 min
2 | O=C(Cc1ccccc1Nc1c(Cl)cccc1Cl)OCCc1ccccn1 [DPX-1-0004, 2-(pyridin-2-yl)ethyl 2-(2-((2,6-dichlorophenyl)amino)phenyl)acetate] | 0.15 | 1.1e-06 | 
3 | O=C(Cc1ccccc1Nc1c(Cl)cccc1Cl)OCCn1cnc2ccccc21 [DPX-1-0006, 2-(1H-benzo[d]imidazol-1-yl)ethyl 2-(2-((2,6-dichlorophenyl)amino)phenyl)acetate] | 0.17 | 2.4e-06 | 
4 | O=C(Cc1ccccc1Nc1c(Cl)cccc1Cl)OCCn1ccnc1-c1ccccc1 [DPX-1-0007, 2-(2-phenyl-1H-imidazol-1-yl)ethyl 2-(2-((2,6-dichlorophenyl)amino)phenyl)acetate] | 0.0029 | 2.5e-07 | 

More lines, main results first:

Row | estimated pseudo first-order rate constant (khyd) for cleavage [2] [day⁻¹] | apparent pseudo-zero-order rate constant (k0) [2] [M/day] | Structure (SMILES) | also measured
5 | 0.033 | 1.7e-06 | COc1ccc2cc(C(C)C(=O)OCCc3ccccn3)ccc2c1 (stereo not shown) [DPX-2-0004, 2-(pyridin-2-yl)ethyl 2-(6-methoxynaphthalen-2-yl)propanoate] | 
6 | 0.066 | 1e-06 | COc1ccc2cc(C(C)C(=O)OCCn3cnc4ccccc43)ccc2c1 (stereo not shown) [DPX-2-0006, 2-(1H-benzo[d]imidazol-1-yl)ethyl 2-(6-methoxynaphthalen-2-yl)propanoate] | solubility thermodynamic [3]: 5 ± 1 µg/mL (≈ 13.4 µM); solubility ([4]; acidified demineralized water with 5% (v/v) DMA, 5% (v/v) DMA, read-out: solubility in the presence of 5% (v/v) DMA): 250 µg/mL; solubility ([4]; acidified demineralized water with 15% (v/v) DMA, 15% (v/v) DMA, read-out: solubility in the presence of 15% (v/v) DMA): 350 µg/mL; solubility ([4]; acidified demineralized water with 30% (v/v) DMA, 30% (v/v) DMA, read-out: solubility in the presence of 30% (v/v) DMA): 570 µg/mL; solubility ([4]; acidified demineralized water with 50% (v/v) DMA, 50% (v/v) DMA, read-out: solubility in the presence of 50% (v/v) DMA): 2250 µg/mL
7 | 0.065 | 1e-06 | COc1ccc2cc(C(C)C(=O)OCCn3ccnc3-c3ccccc3)ccc2c1 (stereo not shown) [DPX-2-0007, 2-(2-phenyl-1H-imidazol-1-yl)ethyl 2-(6-methoxynaphthalen-2-yl)propanoate] | precipitation on mixing with buffer pH 7.4 [5]: a precipitation was immediately observed
